Assays:
Test in all cases: Test C preemergence
Assay type in all cases: in vivo
[1] = system: Galium (catchweed bedstraw, Galium aparine); conditions: for Plant response rating, Galium: scale 0 to 100, 0 no effect, 100 complete control
In short: (§1)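 Preemergence application to seeds in loam/sand soil, or foliar (postemergence) application to plants 2–18 cm tall in peat moss/vermiculite medium; surfactant-containing non-phytotoxic solvent vehicle; greenhouse. Visual injury vs controls at 13–15 d; 0 = no effect, 100 = complete control.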

[2] = system: ragweed (common ragweed, Ambrosia elatior); conditions: for Plant response rating, Ragweed: scale 0 to 100, 0 no effect, 100 complete control
In short: as §1

[3] = system: crabgrass, large (large crabgrass, Digitaria sanguinalis); conditions: for Plant response rating, Crabgrass, Large: scale 0 to 100, 0 no effect, 100 complete control
In short: as §1

[4] = system: ryegrass, Italian (Italian ryegrass, Lolium multiflorum); conditions: for Plant response rating, Ryegrass, Italian: scale 0 to 100, 0 no effect, 100 complete control
In short: as §1

[5] = system: waterhemp (common waterhemp, Amaranthus rudis); conditions: for Plant response rating, Waterhemp: scale 0 to 100, 0 no effect, 100 complete control
In short: as §1

[6] = system: wheat (winter wheat, Triticum aestivum); conditions: for Plant response rating, Wheat: scale 0 to 100, 0 no effect, 100 complete control
In short: as §1

[7] = system: oilseed rape (Brassica napus); conditions: for Plant response rating, Oilseed Rape: scale 0 to 100, 0 no effect, 100 complete control
In short: as §1

[8] = system: lambsquarters (Chenopodium album); conditions: for Plant response rating, Lambsquarters: scale 0 to 100, 0 no effect, 100 complete control
In short: as §1

[9] = system: foxtail, giant (giant foxtail, Setaria faberii); conditions: for Plant response rating, Foxtail, Giant: scale 0 to 100, 0 no effect, 100 complete control
In short: as §1

[10] = system: velvetleaf (Abutilon theophrasti); conditions: for Plant response rating, Velvetleaf: scale 0 to 100, 0 no effect, 100 complete control
In short: as §1

[11] = system: pigweed (Amaranthus retroflexus); conditions: for Plant response rating, Pigweed: scale 0 to 100, 0 no effect, 100 complete control
In short: as §1

[12] = system: barnyardgrass (Echinochloa crus-galli); conditions: for Plant response rating, Barnyardgrass: scale 0 to 100, 0 no effect, 100 complete control
In short: as §1

[13] = system: blackgrass (Alopecurus myosuroides); conditions: for Plant response rating, Blackgrass: scale 0 to 100, 0 no effect, 100 complete control
In short: as §1

corn (Zea mays) = conditions: for Plant response rating, Corn: scale 0 to 100, 0 no effect, 100 complete control
In short: as §1

[14] = system: morningglory (Ipomoea coccinea); conditions: for Plant response rating, Morningglory: scale 0 to 100, 0 no effect, 100 complete control
In short: as §1

[15] = system: nutsedge, yellow (yellow nutsedge, Cyperus esculentus); conditions: for Plant response rating, Nutsedge, Yellow: scale 0 to 100, 0 no effect, 100 complete control
In short: as §1

soybean (Glycine max) = conditions: for Plant response rating, Soybean: scale 0 to 100, 0 no effect, 100 complete control
In short: as §1

[16] = system: johnsongrass (Sorghum halepense); conditions: for Plant response rating, Johnsongrass: scale 0 to 100, 0 no effect, 100 complete control
In short: as §1

[17] = 31 g ai/ha, 0 is no effect, 100 is complete control

CN1CC(c2ccc(F)c(F)c2)C(C(=O)Nc2ccccc2S(C)(=O)=O)C1=O (stereo not drawn) [Compound 640]
95: Plant response rating (scale of 0 to 100), Crabgrass, Large [3, 17] | Plant response rating, Foxtail, Giant ([9]; 62 g ai/ha) | Plant response rating, Foxtail, Giant ([9]; 125 g ai/ha) | Plant response rating, Foxtail, Giant ([9]; 250 g ai/ha) | Plant response rating, Barnyardgrass ([12]; 250 g ai/ha)
0: Plant response rating (scale of 0 to 100), Ragweed [2, 17] | Plant response rating (scale of 0 to 100), Ryegrass, Italian [4, 17] | Plant response rating (scale of 0 to 100), Wheat [6, 17] | Plant response rating (scale of 0 to 100), Oilseed Rape [7, 17] | Plant response rating, Oilseed Rape ([7]; 62 g ai/ha) | Plant response rating (scale of 0 to 100), Velvetleaf [10, 17] | Plant response rating, Velvetleaf ([10]; 62 g ai/ha) | Plant response rating (scale of 0 to 100), Blackgrass [13, 17] | Plant response rating, Blackgrass ([13]; 62 g ai/ha) | Plant response rating (scale of 0 to 100), Corn (corn (Zea mays); [17]) | Plant response rating, Corn (corn (Zea mays); 62 g ai/ha) | Plant response rating, Corn (corn (Zea mays); 125 g ai/ha) | Plant response rating, Corn (corn (Zea mays); 250 g ai/ha) | Plant response rating (scale of 0 to 100), Morningglory [14, 17] | Plant response rating, Morningglory ([14]; 62 g ai/ha) | Plant response rating, Morningglory ([14]; 125 g ai/ha) | Plant response rating, Morningglory ([14]; 250 g ai/ha) | Plant response rating (scale of 0 to 100), Nutsedge, Yellow [15, 17] | Plant response rating, Nutsedge, Yellow ([15]; 62 g ai/ha) | Plant response rating, Nutsedge, Yellow ([15]; 125 g ai/ha) | Plant response rating, Nutsedge, Yellow ([15]; 250 g ai/ha) | Plant response rating (scale of 0 to 100), Soybean (soybean (Glycine max); [17]) | Plant response rating, Soybean (soybean (Glycine max); 62 g ai/ha) | Plant response rating, Soybean (soybean (Glycine max); 125 g ai/ha) | Plant response rating, Soybean (soybean (Glycine max); 250 g ai/ha) | Plant response rating (scale of 0 to 100), Johnsongrass [16, 17] | Plant response rating, Johnsongrass ([16]; 62 g ai/ha) | Plant response rating, Johnsongrass ([16]; 125 g ai/ha)
35: Plant response rating, Lambsquarters ([8]; 62 g ai/ha)
100: Plant response rating, Crabgrass, Large ([3]; 62 g ai/ha) | Plant response rating, Crabgrass, Large ([3]; 250 g ai/ha)
55: Plant response rating (scale of 0 to 100), Waterhemp [5, 17]
60: Plant response rating, Wheat ([6]; 250 g ai/ha)
80: Plant response rating, Galium ([1]; 62 g ai/ha) | Plant response rating, Oilseed Rape ([7]; 250 g ai/ha) | Plant response rating, Pigweed ([11]; 250 g ai/ha) | Plant response rating (scale of 0 to 100), Barnyardgrass [12, 17]
45: Plant response rating, Wheat ([6]; 125 g ai/ha)
5: Plant response rating, Ryegrass, Italian ([4]; 62 g ai/ha) | Plant response rating, Ryegrass, Italian ([4]; 125 g ai/ha) | Plant response rating, Oilseed Rape ([7]; 125 g ai/ha)
25: Plant response rating (scale of 0 to 100), Lambsquarters [8, 17]
20: Plant response rating, Wheat ([6]; 62 g ai/ha) | Plant response rating, Blackgrass ([13]; 125 g ai/ha)
98: Plant response rating (scale of 0 to 100), Galium [1, 17] | Plant response rating, Crabgrass, Large ([3]; 125 g ai/ha)
75: Plant response rating, Waterhemp ([5]; 62 g ai/ha)
90: Plant response rating, Galium ([1]; 250 g ai/ha) | Plant response rating, Barnyardgrass ([12]; 62 g ai/ha) | Plant response rating, Barnyardgrass ([12]; 125 g ai/ha)
85: Plant response rating, Galium ([1]; 125 g ai/ha) | Plant response rating, Ragweed ([2]; 250 g ai/ha) | Plant response rating, Waterhemp ([5]; 250 g ai/ha) | Plant response rating (scale of 0 to 100), Foxtail, Giant [9, 17]
50: Plant response rating, Lambsquarters ([8]; 125 g ai/ha) | Plant response rating, Pigweed ([11]; 62 g ai/ha) | Plant response rating, Blackgrass ([13]; 250 g ai/ha)
10: Plant response rating, Velvetleaf ([10]; 125 g ai/ha)
70: Plant response rating, Ragweed ([2]; 125 g ai/ha) | Plant response rating, Waterhemp ([5]; 125 g ai/ha) | Plant response rating, Lambsquarters ([8]; 250 g ai/ha) | Plant response rating, Pigweed ([11]; 125 g ai/ha)
40: Plant response rating, Ragweed ([2]; 62 g ai/ha) | Plant response rating, Ryegrass, Italian ([4]; 250 g ai/ha) | Plant response rating, Velvetleaf ([10]; 250 g ai/ha) | Plant response rating (scale of 0 to 100), Pigweed [11, 17] | Plant response rating, Johnsongrass ([16]; 250 g ai/ha)

Source: patent US12077503B2, “Substituted cyclic amides and their use as herbicides” (FMC CORPORATION, priority 2015, dated 2024)
